Assays:
[1] = tested on: SLC6A1^+/S295L mice; experiment: Video-monitoring synchronized EEG recordings, seizure activity; format: in vivo, mouse
Experimental: The working solution was stored at 4° C.
The surgery to implant the EEG head mount and the video-monitoring synchronized EEG recordings were conducted as described by Kristensen et al., Pharmcol. Rev. 63 (3): 585-640 (2011) and Cai et al., Exp. Neurol. 3:112973 (2019).
For recordings, the sampling rate was set at 400 Hz with a pre-amplifier gain of […]. […] EEG recordings were scored blindly by a skilled scorer using the Sirenia Seizure Pro software. A power analysis was performed using the theta frequency band of 5-7 Hz. The 5-7 Hz SWDs band was chosen because it is the mouse correlate of 2-4 Hz SWDs in humans. An average power was calculated using baseline recordings and applied to seizure analysis for treatment recordings. Seizures identified by the software were confirmed using video recordings of the period. The Racine scale was used for seizure identification (Stage 1: mouth/facial movements; Stage 2: head nodding; Stage 3: forelimb clonus; Stage 4: rearing; Stage 5: rearing and falling). The identified SWDs were then confirmed with video monitoring and compared across treated and non-treated recordings. The total seizure events over 48 hrs of EEG recordings were reported.
First, ˜2-month-old mice were implanted with EEG head mounts. After 5-7 days recovery, the mice were treated with a normal saline vehicle for 7 days, and then subject to video monitored EEG recording for 48 hrs. […]

[2] = biological target: T1, GAT-1 in corrected isogenic control astrocytes (Homo sapiens, UniProt P30531); experiment: 3H GABA uptake, corrected isogenic control iPSC derived astrocytes; format: cell-based; conditions: PBA 2 mM, 24 hrs
T1 construct: endogenous in cells; host or cells: astrocytes differentiated from CRISPR-corrected isogenic control iPSCs
Experimental: Live images of human neural progenitor cells (NPCs), astrocytes and GABAergic inhibitory neurons differentiated from the human induced pluripotent stem cells (iPSCs) on the day of experiment. […] The DMSO treated corrected or patient cells was taken as 1. […] GABA flux was measured after 30 min transport at room temperature. The influx of GABA, expressed in pmol/μg protein/min, was averaged from duplicates for each condition and for each transfection. The average counting was DMSO treated condition taken as 1. In FIG. 5B, FIG. 5D and FIG. 5F, 966 stands for CI-966 (50 μM) and 711 stands for NNC-711 (35 μM) that was applied 30 min to the astrocytes transfected with the wildtype GAT-1^YFP before preincubation and removed during preincubation. In FIGS. 5B and D, ***p<0.001 vs. corrected DMSO treated. § § <0.01, § § § p<0.001 vs. patient DMSO treated. […] In FIGS. 5B-E, n=4-8 batches of cells. In FIG. 5F, n=4-5 different transfections). Unpaired t test was used for FIG. 5C and FIG. 5E. […] Values were expressed as mean±S.E.M.). […]
Briefly, cells were cultured in […] dishes for 3 days before the GABA uptake experiment in DMEM with 10% fetal bovine serum and 1% penicillin/streptomycin. […] Glacial acetic acid was added, and lysates were then determined on a liquid scintillator with QuantaSmart. […]

T1 sequence (P30531 whole entry): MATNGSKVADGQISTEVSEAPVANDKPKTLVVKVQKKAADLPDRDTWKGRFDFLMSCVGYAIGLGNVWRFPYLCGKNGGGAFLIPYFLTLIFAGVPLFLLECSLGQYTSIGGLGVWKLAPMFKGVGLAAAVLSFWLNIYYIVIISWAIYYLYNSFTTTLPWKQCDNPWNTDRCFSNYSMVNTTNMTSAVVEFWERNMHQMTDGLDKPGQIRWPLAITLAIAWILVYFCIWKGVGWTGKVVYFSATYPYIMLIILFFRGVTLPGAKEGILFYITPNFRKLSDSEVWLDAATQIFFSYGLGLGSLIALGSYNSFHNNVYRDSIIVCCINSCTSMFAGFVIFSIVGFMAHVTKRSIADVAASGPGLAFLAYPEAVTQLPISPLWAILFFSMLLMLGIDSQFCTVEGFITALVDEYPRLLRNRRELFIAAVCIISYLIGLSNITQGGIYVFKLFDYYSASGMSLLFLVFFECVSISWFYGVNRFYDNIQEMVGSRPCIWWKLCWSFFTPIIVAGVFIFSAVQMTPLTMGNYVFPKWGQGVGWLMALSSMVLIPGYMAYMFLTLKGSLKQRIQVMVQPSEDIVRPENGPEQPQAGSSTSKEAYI

- GABA uptake normalized to its DMSO treated [2]: 1.173±0.026
SMILES: O=C(O)CCCc1ccccc1 [PBA, 4-phenylbutyric acid]
- total number of 5-7 Hz SWDs over 48 hrs EEG recordings ([1]; PBA 100 mg/kg, ip, single dose daily, 7 days (vehicle 127.7±34.08)): 33.3±13.02
- reduction of seizure burden ([1]; PBA treatment alone, 1 week): ~76%

Source: patent US20260144769A1, “4-PHENYLBUTYRATE RESTORED GABA UPTAKE AND REDUCED SEIZURES IN SLC6A1 VARIANT-MEDIATED DISORDERS” (Vanderbilt University, priority 2022, published 2026)
